Data on nine molecules can be found in patent EP0417209B1, “COMPOSITIONS AND METHODS FOR ADMINISTERING […] ACTIVE COMPOUNDS” (priority 1988, dated 1990).

For data set [1] the following is noted: cited from earlier work.
On the set-up of data set [2]: species or system men. As to conditions: in vivo. From the text: The following example describes clinical tests comparing the product of Example 1 (test material) with L-ascorbic acid and citric acid (placebo), measuring intra-cellular and serum ascorbate levels, urinary ascorbate output and urinary oxalate excretion at various times after ingestion of standard doses of the test, L-ascorbic acid and placebo.
Twelve men, ages 27 to 45, were studied.
All were instructed that they should be on a low Vitamin C diet for one week prior to the study (no citrus products and no large amounts of green leafy vegetables).
Following overnight fast, blood and 24-hour urine samples were taken. White blood cell and 24-hour urinary ascorbate and oxalate levels were determined and correlated with serum ascorbate levels.
The 12 men were divided into three groups, and were given the following supplements: • (a) Test Group: 4000 MG* per day of the product Ex. 1. • (b) Ascorbate Group: 3000 MG of L-ascorbic per day. • (c) Citric Acid Group: 3000 MG of citric acid per day. *4000 MG is equivalent in ascorbate (iodine test) to 3000MG L-ascorbic acid.
All 12 continued on a low Vitamin C diet. Blood samples were taken at 0, 4, 8 and 24 hours after morning ingestion of the designated supplements. Urinary 24-hour ascorbate and oxalate levels were determined.
After a wash-out period (varying from two days to several days, due to job situation of participants), the groups were switched to another supplement, as follows: • (a) Test group to citrate group. • (b) Citrate group to ascorbate group. • (c) Ascorbate group to test group.
Supplements were taken at the same level (4000 MG of Ex. 1 product, 3000 MG of L-ascorbic and 3000 MG of citric acid) by all three groups. Blood samples were again drawn at 0, 4, 8 and 24 hours from time of ingestion. A 24-hour urine was also collected by all 12 participants at the end of the period. Again, all specimens were analyzed for their respective concentration of ascorbate and oxalate levels.
The analytical procedures utilized are described in: Clinical Chemistry, Principles and Techniques, edited by Richard J. Henry, Donald D. Cannon and James W. Windelman, Harper and Row, 1974 p. 1393-1398.
Standard Method of Clinical Chemistry, J. S. Roe, edited by Seligson D. New York, Academic Press, 1961, Vo. 3, p. 35.
In the quantitation of 24-hour urine oxalate, an aliquot of urine is shaken with an adsorbent which selectively binds the oxalate. The extracted urine is discarded and the oxalate is eluted from the adsorbent with dilute alkali.
Oxalate is oxidized to hydrogen peroxide and carbon dioxide by oxalate oxidase. The hydrogen peroxide reacts with 3-methyl-2-benzothiozolinone hydrazone (MBTH) and 3 (dimethylamino) benzoic acid (DMAB) in the presence of peroxidase to yield an indamine dye with a maximum absorbance at 590 NM.

Details of data set [3]: species or system Wistar derived albino rats. The settings on record: rat, in vivo. As for the experimental part: Sixteen Wistar derived albino rats, eight male (242-333 gms) and eight female (295-345 gms) were acclimated for seven days prior to beginning this study. During this period the rats were fed Purina(R) Rodent Chow, watered ad lib and housed in self-flushing stainless-steel cages.
The rats were randomly assigned to two groups of eight each (4 males and 4 females) and placed in metabolism cages. […] Blood samples were taken at 1, 2, 3 and 4 hours after dosing for serum salicylate analysis. Urine was collected if produced at the same time periods for salicylate analysis also. In an effort to maximize urine output the rats were given additional water at 1, 2, 3 and 4 hours by gavage (3 ml).
Blood and urine were collected and analyzed according to the method of Natleson. [Natelson, S. Techniques of Clinical Chemistry, ed. 3. p. 649, Charles C. Thomas, Pub. (1971)]. The study was terminated after the 4 hour collection time.
All statistics were calculated via Statistical Analysis System (SAS Institute, Inc., Box 8000, Cary, NC, 27511) software. The ANOVA (repeated measures model) procedure was used to determine differences in salicylate concentrations between groups.
The average values (X) and standard deviation (SD) for each group and time are given. Figure 1 is a histogram presentation of the data in Table 2. The significance level (P) of the differences between the two groups at each sample time in salicylate concentration in serum are given next to each set of histograms. Figure 2 is the serum salicylate profile over time for both groups of rats, standard deviation bars are included. The initial uptake rate (gastrointestinal) is calculated from the linearized curve in the first hour after dosing. Urine salicylate data is not presented in detail but will be discussed below. The groups are not broken down into male and female because there is no significant difference in the serum salicylate related to the sex of the animal.

Data set [4] deals with 3T3 mouse fibroblasts.
Procedure: A control group was incubated with Ringer's as a control.
(5 ul of 14C-L ascorbic acid was added, 10.0 mCi/mmol, 0.05 mCi/ml).
The flasks were then washed with 4 ml HBSS(-) and then were trypsinized with 0.1 ml trypsin-EDTA for 5 minutes. The cells were resuspended in 4 ml ice cold HBSS(-) to stop the enzymatic reaction. The cells were centrifuged for 10 minutes at 1000 G. The cells were then washed and resuspended in 4 ml HBSS(-). The cells were again centrifuged (10 min, 1000G), resuspended in 1.0 ml distilled H2O and sonicated for 90 seconds.
0.5 ml of each sample was used for counting ^14C and 0.5 ml was used for protein analysis using the Bradford method.
Data set [5] can be described thus: Plasma Piroxicam after gavage, 3-day calcium threonate pretreatment (Example 13). The class given is in vivo, Wistar derived Albino rats. As to conditions: rat, po, 0.6 mg/kg, read-out: Piroxicam Plasma Concentration, average (X). On the procedure: Ten Wistar derived Albino rats, male (420-456 gms), were acclimated for seven days prior to beginning the study. During this period the rats were fed Purina(R) Rodent Chow, watered ad lib and housed in self-flushing stainless-steel cages.
The rats were randomly assigned to two groups of five each. Group A rats were gavaged daily for 3 days with 1.0 ml distilled water prior to beginning the study. Group AM rats were gavaged daily with 15 mg/kg/ml of calcium threonate for 3 days also. Threonate dosages were corrected for increases in body weights daily in insure the 15 mg/kg dose was maintained.
On day 4 the Group A rats were gavaged with Piroxicam at 0.6 mg/kg and group AM rats with 0.6 mg/kg Piroxicam and 15 mg/kg threonate. Plasma samples were taken at 4, 6, 8 and 10 hrs. post-dosing for plasma Piroxicam analysis.
Selective HPLC was used to analyze Piroxicam. The data was analyzed statistically by the SAS procedure. The ANOVA repeated measures procedure was used to determine differences in plasma Piroxicam concentration between groups.
The average (X) values for each group at each time period are given.

The nature of data set [6]: Plasma Piroxicam after gavage, combined administration with calcium threonate (Example 12). As to conditions: 0.6 mg/kg; for Plasma Piroxicam Concentration: listed as U.S.P. piroxicam; for concentration at 4 h: 4 hours after dosing. The class given is in vivo, Wistar derived albino rats. As for the experimental part: Ten Wistar derived albino rats, male (375-411 gms), were acclimated for seven days prior to beginning the study. During this period the rats were fed Purina(R) Rodent Chow, watered ad lib and housed in self-flushing stainless-steel cages.
The rats were randomly assigned to two groups of five each and placed in Nalgene(R) cages. Group A received U.S.P. Piroxicam at 0.6 mg/kg, and Group AM received U.S.P. Piroxicam at 0.6 mg/kg plus calcium threonate at 15 mg/kg by gavage. Plasma samples were taken at 4, 6, 8 and 10 hours after dosing for plasma Piroxicam analysis.
Selective HPLC was used to analyze Piroxicam and the data analyzed via SAS. The ANOVA repeated measures procedure was used to determine differences in plasma Piroxicam concentrations between groups.
The average values (X) for each group and time are given. Figure 3 is the plasma profile of the data in Table 4.

The subject of data set [7] is movement disorders. As to the kind of experiment: Supplementation of dogs with chronic movement disorders; clinical evaluation and owner's report. The class given is in vivo. The settings on record: given orally. As for the experimental part: One hundred-eighty dogs of varying breed and age were fed 3 x 30 mgs/kg of the product of Example 1. All of these dogs suffered movement disorders.
The effect was measured seven days after supplementation and then again after six weeks. Last evaluation was after more than six months.
A number of different ailments were treated, both acute and chronic. In acute illness where symptoms are rapidly changing, one finds it hard to distinguish between the effect of supplementation and other factors.
Animals with the following chronic ailments were chosen: joint-injuries with secondary permanent changes, arthrosis, spondylosis, hip dysplasia, older dico-prolapse with secondary permanent changes, muscle-atrophy as a result of funtio laesa and senile wear-changes in support and motion-systems.
One hundred dogs qualify under the above criteria. Age or breed was not taken into consideration in this report.

Values joined by “and” are separate entries in the source; they are usually repeats but may differ in a detail not shown here. Equal values may be shown once.

As a reminder, the pKa is the negative logarithm of the acid dissociation constant. On to `CC1=C(CC(=O)O)c2cc(F)ccc2/C1=C\c1ccc([S+](C)[O-])cc1` (stereo not shown) [Sulindac], for which, in data set [1], the pKa is reported as 4.7.

As to `O=C1O[C@H]([C@@H](O)CO)C(O)=C1O` [L-ascorbic, L-ascorbic acid], in data set [2], the “7th Day Urine Ascorbate” value is 459 MG/24 Hour, the “7th Day Urine Ascorbate % Change” value was 4583%, the “24 Hour Urine Ascorbate” value worked out at 314.5 MG/24 Hour and the “24 Hour Urine Ascorbate % Change” value came to 2760.6%. Besides, in data set [2], the “24th Hour Urine Oxalate” value amounted to 63.8 MG/24 Hour and the “24th Hour Urine Oxalate % Change” value was 162%.

Consider `Cc1ccc(Cl)c(Nc2ccccc2C(=O)O)c1Cl` [Meclofenamic Acid], for which, in data set [1], the pKa is recorded as 4.0.

In the case of `CO[C@@]1(NC(=O)Cc2cccs2)C(=O)N2C(C(=O)O)=C(COC(N)=O)CS[C@@H]21` [Cefoxitin], in data set [1], the pKa is on record as 2.2.

In data set [3], `CC(=O)Oc1ccccc1C(=O)O` [Aspirin] returned an elimination rate of 1.30 mg/h and an uptake rate of 4.40 mg/h. The Urine salicylate result in data set [3] (60 min) was “approximately 9.1 mg%”.

On to `O=C(O)[C@H](O)[C@@H](O)CO` [Calcium-L-Threonate, calcium L-threonate], for which the “uptake of 14C into the cells, average” value in data set [4] (average of three flasks) amounted to 1.19 DPM/ug. Further, the “Uptake Ratio, average” value in data set [4] (average of three flasks, relative to Ringer's control) is given as 1.86. For the same molecule, the “uptake of 14C into the cells” value in data set [4] (single flask, 100 mg% calcium L-threonate 1 hour at 37°C, then 1.25 mg% ascorbic acid 20 minutes) is 0.835 DPM/ug and 1.341 DPM/ug and 1.384 DPM/ug. In data set [4] (single flask, relative to average Ringer's control), the “Uptake Ratio” value is 1.30 and 2.09 and 2.16.

In the case of `C=CCOc1ccc(CC(=O)O)cc1Cl` [Alclofenac], in data set [1], the pKa is recorded as 4.6.

Take `CN1C(C(=O)Nc2ccccn2)=C(O)c2ccccc2S1(=O)=O` [Prioxicam]: the concentration at 4 h in data set [5] (4 hrs post-dosing on day 4, group average) was 1300 ng/mL; in data set [6] (rat, plasma, po, group average, read-out: Plasma Piroxicam Concentration, average (X)) it was 1800 ng/mL; in data set [6] (rat, plasma, po, piroxicam 0.6 mg/kg (AM: plus threonate 15 mg/kg), individual rat, read-out: Plasma Piroxicam Concentration) it was 2200 ng/mL. For the same molecule, the concentration at 6 h in data set [5] (6 hrs post-dosing on day 4, group average) was 1300 ng/mL; in data set [6] (rat, plasma, po, 6 hours after dosing, group average, read-out: Plasma Piroxicam Concentration, average (X)) it was 1700 ng/mL. Moreover, the concentration at 8 h stood at 1100 ng/mL in data set [5] (8 hrs post-dosing on day 4, group average); 1800 ng/mL in data set [6] (rat, plasma, po, 8 hours after dosing, group average, read-out: Plasma Piroxicam Concentration, average (X)); 1700 ng/mL in data set [6] (rat, plasma, po, 8 hours after dosing, individual rat, read-out: Plasma Piroxicam Concentration). Besides, the concentration at 10 h in data set [5] (10 hrs post-dosing on day 4, group average) worked out at 900 ng/mL; in data set [6] (rat, plasma, po, 10 hours after dosing, group average, read-out: Plasma Piroxicam Concentration, average (X)), 1800 ng/mL; in data set [6] (rat, plasma, po, 10 hours after dosing, individual rat, read-out: Plasma Piroxicam Concentration), 2000 ng/mL. Further, the “Plasma Piroxicam Concentration” value was 1.9 µg/mL and 1.8 µg/mL and 1.6 µg/mL in data set [6] (8 hours after dosing, individual rat, 480 min); 1.4 µg/mL and 1.7 µg/mL and 2.0 µg/mL in data set [6] (10 hours after dosing, individual rat, 600 min).

In the case of `O=C1O[C@H]([C@@H](O)CO)C(O)=C1O` [calcium-ascorbate], in data set [7], the “symptomatic relief of chronic deforming changes in the joint and skeleton system” value is on record as “Neither calcium-ascorbate alone nor L-ascorbic acid alone give such relief”.
